According to PubChem BioAssay AID1259407 (Chemical Carcinogenesis Research Information System (CCRIS), 2018):
Activity calls are given as the source filed them. The rule behind the calls is not given here.

Tested on: CCRIS mutagenicity, Ames/micronucleus/aberration tests
Experiment: CCRIS mutagenicity studies

Q: How did the mutagenic call (End Point: IN VITRO CHROMOSOMAL ABERRATIONS, Test System: CHINESE HAMSTER OVARY CELLS, Metabolic Activation: NONE) turn out when `Nc1ccc(-c2ccc(N)cc2)cc1` was run?
A: inactive; negative

Q: What about the mutagenic call (End Point: IN VITRO CHROMOSOMAL ABERRATIONS, Test System: CHINESE HAMSTER OVARY CELLS, Metabolic Activation: RAT, LIVER, S-9, AROCLOR 1254) of the same compound?
A: active; positive

Q: What about the mutagenic call (Test System: AMES SALMONELLA TYPHIMURIUM, Strain/Indicator: DJ400, Metabolic Activation: HUMAN, HEPATOMA CELLS, BENZO[A]ANTHRACENE, Method: PREINCUBATION) of the same compound?
A: active; positive

Q: And the mutagenic call (Test System: AMES SALMONELLA TYPHIMURIUM, Strain/Indicator: DJ400, Metabolic Activation: HUMAN, HEPATOMA CELLS, Method: PREINCUBATION)?
A: active; positive

Q: What about the mutagenic call (Test System: AMES SALMONELLA TYPHIMURIUM, Strain/Indicator: DJ400, Metabolic Activation: RAT, LIVER, S-9, AROCLOR 1254, Method: PREINCUBATION) of the same compound?
A: active; positive

Q: And the mutagenic call (Test System: AMES SALMONELLA TYPHIMURIUM, Strain/Indicator: DJ400, Metabolic Activation: RAT, LIVER, S-9, Method: PREINCUBATION)?
A: active; positive

Q: What about the mutagenic call (Test System: AMES SALMONELLA TYPHIMURIUM, Strain/Indicator: DJ400, Metabolic Activation: TOBACCO TX1 CELLS, Method: PREINCUBATION) of the same compound?
A: inactive; negative

Q: And the mutagenic call (Test System: AMES SALMONELLA TYPHIMURIUM, Strain/Indicator: DJ460, Metabolic Activation: HUMAN, HEPATOMA CELLS, BENZO[A]ANTHRACENE, Method: PREINCUBATION)?
A: active; positive

Q: What about the mutagenic call (Test System: AMES SALMONELLA TYPHIMURIUM, Strain/Indicator: DJ460, Metabolic Activation: HUMAN, HEPATOMA CELLS, Method: PREINCUBATION) of the same compound?
A: active; positive

Q: What about the mutagenic call (Test System: AMES SALMONELLA TYPHIMURIUM, Strain/Indicator: DJ460, Metabolic Activation: RAT, LIVER, S-9, AROCLOR 1254, Method: PREINCUBATION) of the same compound?
A: active; positive

Q: And the mutagenic call (Test System: AMES SALMONELLA TYPHIMURIUM, Strain/Indicator: DJ460, Metabolic Activation: RAT, LIVER, S-9, Method: PREINCUBATION)?
A: active; positive

Q: What about the mutagenic call (Test System: AMES SALMONELLA TYPHIMURIUM, Strain/Indicator: DJ460, Metabolic Activation: TOBACCO CELL-FREE EXTRACT, Method: PREINCUBATION) of the same compound?
A: active; positive

Q: What about the mutagenic call (Test System: AMES SALMONELLA TYPHIMURIUM, Strain/Indicator: DJ460, Metabolic Activation: TOBACCO TX1 CELLS, Method: PREINCUBATION) of the same compound?
A: active; positive

Q: What about the mutagenic call (Test System: AMES SALMONELLA TYPHIMURIUM, Strain/Indicator: MP110, Metabolic Activation: TOBACCO TX1 CELLS, Method: PREINCUBATION) of the same compound?
A: inactive; negative

Q: And the mutagenic call (Test System: AMES SALMONELLA TYPHIMURIUM, Strain/Indicator: MP120, Metabolic Activation: TOBACCO TX1 CELLS, Method: PREINCUBATION)?
A: inactive; negative

Q: And the mutagenic call (Test System: AMES SALMONELLA TYPHIMURIUM, Strain/Indicator: MP208, Metabolic Activation: TOBACCO CELL-FREE TXIMX, Method: PREINCUBATION)?
A: active; positive

Q: What about the mutagenic call (Test System: AMES SALMONELLA TYPHIMURIUM, Strain/Indicator: MP219, Metabolic Activation: TOBACCO CELL-FREE TXIMX, Method: PREINCUBATION) of the same compound?
A: active; positive

Q: What about the mutagenic call (Test System: AMES SALMONELLA TYPHIMURIUM, Strain/Indicator: SV50, Metabolic Activation: HAMSTER, LIVER, S-9, Method: STANDARD PLATE) of the same compound?
A: inactive; negative

Q: And the mutagenic call (Test System: AMES SALMONELLA TYPHIMURIUM, Strain/Indicator: SV50, Metabolic Activation: NONE, Method: PREINCUBATION (PRIVAL METHOD))?
A: active; positive

Q: And the mutagenic call (Test System: AMES SALMONELLA TYPHIMURIUM, Strain/Indicator: SV50, Metabolic Activation: RAT, LIVER, S-9, AROCLOR 1254, Method: STANDARD PLATE)?
A: inactive; negative

Q: What about the mutagenic call (Test System: AMES SALMONELLA TYPHIMURIUM, Strain/Indicator: TA98(1,8-DNP6), Metabolic Activation: NONE, Method: PREINCUBATION) of the same compound?
A: inactive; negative

Q: What about the mutagenic call (Test System: AMES SALMONELLA TYPHIMURIUM, Strain/Indicator: TA98(1,8-DNP6), Metabolic Activation: NONE, Method: STANDARD PLATE) of the same compound?
A: inactive; negative

Q: And the mutagenic call (Test System: AMES SALMONELLA TYPHIMURIUM, Strain/Indicator: TA98(1,8-DNP6), Metabolic Activation: PLANT CELLS, Method: PREINCUBATION)?
A: active; positive

Q: And the mutagenic call (Test System: AMES SALMONELLA TYPHIMURIUM, Strain/Indicator: TA98(1,8-DNP6), Metabolic Activation: S-9, Method: STANDARD PLATE)?
A: inactive; negative

Q: What about the mutagenic call (Test System: AMES SALMONELLA TYPHIMURIUM, Strain/Indicator: TA98(1,8-DNP6), Metabolic Activation: TOBACCO CELL-FREE TXIMX, Method: PREINCUBATION) of the same compound?
A: inactive; negative

Q: And the mutagenic call (Test System: AMES SALMONELLA TYPHIMURIUM, Strain/Indicator: TA98(NR), Metabolic Activation: TOBACCO CELL-FREE TXIMX, Method: PREINCUBATION)?
A: active; positive

Q: What about the mutagenic call (Test System: AMES SALMONELLA TYPHIMURIUM, Strain/Indicator: TA98, Metabolic Activation: HAMSTER, LIVER, S-9, Method: PREINCUBATION) of the same compound?
A: active; positive

Q: What about the mutagenic call (Test System: AMES SALMONELLA TYPHIMURIUM, Strain/Indicator: TA98, Metabolic Activation: HAMSTER, LIVER, S-9, Method: PREINCUBATION (PRIVAL METHOD)) of the same compound?
A: active; positive

Q: And the mutagenic call (Test System: AMES SALMONELLA TYPHIMURIUM, Strain/Indicator: TA98, Metabolic Activation: HAMSTER, LIVER, S-9, Method: STANDARD PLATE)?
A: active; positive

Q: And the mutagenic call (Test System: AMES SALMONELLA TYPHIMURIUM, Strain/Indicator: TA98, Metabolic Activation: HUMAN, HEPATOMA CELLS, BENZO[A]ANTHRACENE, Method: PREINCUBATION)?
A: active; positive

Q: What about the mutagenic call (Test System: AMES SALMONELLA TYPHIMURIUM, Strain/Indicator: TA98, Metabolic Activation: HUMAN, HEPATOMA CELLS, Method: PREINCUBATION) of the same compound?
A: active; positive

Q: And the mutagenic call (Test System: AMES SALMONELLA TYPHIMURIUM, Strain/Indicator: TA98, Metabolic Activation: MOUSE, LIVER, S-9, Method: STANDARD PLATE)?
A: active; positive

Q: What about the mutagenic call (Test System: AMES SALMONELLA TYPHIMURIUM, Strain/Indicator: TA98, Metabolic Activation: NONE, Method: PREINCUBATION) of the same compound?
A: inactive; negative

Q: And the mutagenic call (Test System: AMES SALMONELLA TYPHIMURIUM, Strain/Indicator: TA98, Metabolic Activation: NONE, Method: STANDARD PLATE)?
A: inactive; negative

Q: What about the mutagenic call (Test System: AMES SALMONELLA TYPHIMURIUM, Strain/Indicator: TA98, Metabolic Activation: PLANT CELLS, Method: PREINCUBATION) of the same compound?
A: active; positive

Q: What about the mutagenic call (Test System: AMES SALMONELLA TYPHIMURIUM, Strain/Indicator: TA98, Metabolic Activation: RAT LIVER S-9, AROCLOR 1254, Method: PREINCUBATION) of the same compound?
A: active; positive

Q: What about the mutagenic call (Test System: AMES SALMONELLA TYPHIMURIUM, Strain/Indicator: TA98, Metabolic Activation: RAT, BLADDER, S-9, PCB, Method: FLUCTUATION TEST) of the same compound?
A: inactive; negative

Q: What about the mutagenic call (Test System: AMES SALMONELLA TYPHIMURIUM, Strain/Indicator: TA98, Metabolic Activation: RAT, LIVER, S-9, AROCLOR 1254, Method: PREINCUBATION) of the same compound?
A: active; positive

Q: And the mutagenic call (Test System: AMES SALMONELLA TYPHIMURIUM, Strain/Indicator: TA98, Metabolic Activation: RAT, LIVER, S-9, AROCLOR 1254, Method: STANDARD PLATE)?
A: active; positive

Q: And the mutagenic call (Test System: AMES SALMONELLA TYPHIMURIUM, Strain/Indicator: TA98, Metabolic Activation: RAT, LIVER, S-9, PHENOBARBITAL, Method: STANDARD PLATE)?
A: active; positive

Q: What about the mutagenic call (Test System: AMES SALMONELLA TYPHIMURIUM, Strain/Indicator: TA98, Metabolic Activation: RAT, LIVER, S-9, Method: PREINCUBATION) of the same compound?
A: active; positive

Q: And the mutagenic call (Test System: AMES SALMONELLA TYPHIMURIUM, Strain/Indicator: TA98, Metabolic Activation: S-9, Method: STANDARD PLATE)?
A: active; positive

Q: And the mutagenic call (Test System: AMES SALMONELLA TYPHIMURIUM, Strain/Indicator: TA98, Metabolic Activation: TOBACCO CELL-FREE TXIMX, Method: PREINCUBATION)?
A: active; positive

Q: What about the mutagenic call (Test System: AMES SALMONELLA TYPHIMURIUM, Strain/Indicator: TA100(NR), Metabolic Activation: TOBACCO CELL-FREE TXIMX, Method: PREINCUBATION) of the same compound?
A: inactive; negative

Q: And the mutagenic call (Test System: AMES SALMONELLA TYPHIMURIUM, Strain/Indicator: TA100(TN:OAT), Metabolic Activation: TOBACCO CELL-FREE TXIMX, Method: PREINCUBATION)?
A: inactive; negative

Q: And the mutagenic call (Test System: AMES SALMONELLA TYPHIMURIUM, Strain/Indicator: TA100, Metabolic Activation: HUMAN, LIVER, S-9, Method: STANDARD PLATE)?
A: active; positive

Q: And the mutagenic call (Test System: AMES SALMONELLA TYPHIMURIUM, Strain/Indicator: TA100, Metabolic Activation: NONE, Method: PREINCUBATION)?
A: inactive; negative

Q: What about the mutagenic call (Test System: AMES SALMONELLA TYPHIMURIUM, Strain/Indicator: TA100, Metabolic Activation: NONE, Method: STANDARD PLATE) of the same compound?
A: inactive; negative

Q: And the mutagenic call (Test System: AMES SALMONELLA TYPHIMURIUM, Strain/Indicator: TA100, Metabolic Activation: RAT LIVER S-9, AROCLOR 1254, Method: PREINCUBATION)?
A: inactive; negative
